Reference: US4444776A, “Dipyrido (4,3-B) (3,4-F) indoles, process for obtaining them, therapeutical use and pharmaceutical compositions” (priority 1977, dated 1984)

Assays:
L 1210 leukemia [1] = test: Test 10: comparison of antitumoral activity with known products, L 1210 (Tables V-VII); assay type: in vivo, mouse; details: J+3
Procedure: Test 10: Comparison of the antitumoral activity of the compound according to example 7 with that of known products
The compound of example 7, i.e. 1-(γ-diethylaminopropyl)amino-5-methyl-dipyrido-[4,3-b][3,4-f] indole or known compounds were injected into L 1210 leukemic mice 1 or 3 days after the inoculation of the cells at the doses indicated in tables V to VII and the mean survival time (MST) and the precentage of increased life span (ILS %) were measured.
Indications concerned the known products used in this example and particularly their antitumoral properties, their secondary effects and their use in man may be found in "La Chimiotherapie des Cancers", by G. MATHE and M. KENIS Expansion Scientifique Francaise, 3rd edition, Paris 1975.

mice = test: Test 21: toxicity after intraperitoneal injection; details: for time of deaths after drug administration: IP; for minimal quantity resulting in 100% deaths: ip, 43200 min
Procedure: All drugs were dissolved in aqueous solutions adjusted at pH 5 with acetic acid and inoculated to the mice under a volume of 0.1 ml I.P. after dilution in Mac Coy's medium.
The toxicity of the drugs after intraperitoneal injection was estimated from the mortality rate up to the 30th day.

L1210 leukemia [2] = test: Test 17: length of substituting chain, L1210 (Table XIII); assay type: in vivo, mouse
Procedure: Test 17: Relationship between the length of the substituting chain and the activity.
However compound 21 is less toxic (50 mg/kg for compound 21 and 25 mg/kg for compound 23), it has a higher ILS% than compound 23 and 1 mouse survived up to 60 days.

[3] = tested on: tumoral strain derived from the murine leukemia due to the C. FRIEND virus; test: Test 7: antitumoral activity in vitro on Friend leukemia tumoral strain; assay type: cell-based; details: HUM = 1
Procedure: Test 7: Study of the antitumoral activity in vitro
This activity was measured on a tumoral strain derived from the murine leukemia due to the C. FRIEND virus.
The tumoral cells multiply in suspension in a "RPMI 1640" medium (Catalogue of GIBCO Bio-cult. Ltd. Washington Road, Sandyford Industrial Estate, PAISLEY PA 3 4EP, Renfrewshire, Scotland) supplemented with 20% of embryonary calf serum, penicillin and streptomycine. The duplication time of these cells is 11 hours. The growth fraction is equal to 1 or very close to 1 (all the cells are in the cycle). The cultures are sub-culturedat time t=0 at the concentration of 2.10^5 cells per ml in Falcon dishes containing 4 ml of medium. After twenty four hours, the product to be tested was added, i.e. at a moment when the cultures are in exponential phase of growth. Twenty four hours after the addition of the product, the cells are counted and the percentage of living cells determined by an exclusion test using "trypan" blue.

L 1210 leukemia [4] = test: Test 11: L 1210 leukemic mice, examples 7 and 8 (Table VIII); assay type: in vivo, mouse; set-up: MTS: unit not given beside the values; details: J+1
Procedure: This test was carried out with 10^3, 10^4 and 10^5 leukemic cells on day J. This test was also carried out with the compound of example 7, i.e. 1-[(γ-diethylaminopropyl)amino]-5-methyl-dipyrido [4,3-b][3,4-f] indole (compound 21).

L1210 leukemia [5] = test: Test 16: structure-activity of R'1 substitution, L1210 (Table XII); assay type: in vivo, mouse (C57B16xDBA/2)F1; details: for 60 days surv. / ILS % / Range of death: day +1
Procedure: Test 16: Relationship between structure and activity of various dipyrido indoles differing by the R'1 substitution.
L1210 leukemia has been maintained by weekly passages on (C57B16xDBA/2)F1 mice. On day 0, mice were inoculated by I.P. route with various numbers of L1210 ascitic tumor cells in volumes of 0.1 ml. Subsequently as indicated, drugs were administrated in Ca^++ and Mg^++ free PBS solutions (Gibco) or in Mac Coy's medium (Gibso or Microbiological Associates). […]

Lewis carcinoma (3LL) = test: Test 13: Lewis carcinoma, antimetastasic effect; assay type: in vivo, BDF1 mice
Procedure: "carcinome pulmonaire de Lewis" (3LL), K. SUGIURA and C. C. STOCK," Cancer Res. 1955 15 38-51.
In this test, cells (10^6 cells) removed from a tumour-carrying mouse were injected into mice(BDF1) by the IM route. The mice developed, 10 to 15 days after the inoculation, a tumour at the spot where the injection was made. On the other hand, these cells made metastasis in the lung, forming colonies on the pulmonary surface. The antitumoral and antimetastasic effect of a product may therefore be judged on mice thus treated.
Investigation of the antimetastasic effect of the compounds of examples 7 and 8 of the invention
10^6 cells taken from a tumour-carrying mouse were injected by the IM route (left-band paw) into groups of 10 mice and the compounds to be tested were inoculated by the IP route on day J+5 by single or fractioned injection. The mean survival time (MST) and the increased life span (ILS %) were determined.

leukemic cells = test: Test 20: combination of compound 21 with other drugs (Table XV); details: 10^5 cells, BD 40 20 mg/kg day +4, Endoxan 100 mg/kg day +3
Procedure: A priming dose of endoxan (100 mg/kg) was given 3 days after 10^5 leukemic cells (20 mice).

L 1210 leukemia [6] = test: Test 1: antitumoral properties on L 1210 leukemia (Table I); assay type: in vivo, mouse; details: 0,1 mg/mouse
Procedure: The lower animal antitumoral properties of the compounds according to the invention have been determined by their curative action on inoculated test L-1210 leukemia. [ZUBROD C. G., Proc. Nat. Acad. Sci. 1972, 69, 1042-1047 and SCHEPARTZ SA. SCREENING, 1971, CANCER Chemother. Rep. Part 3 vol.2 p.3].
This leukemia is maintained in ascitic form by passage (i.p. route) on CBDl (C57 B16×DBA/2)F1 mice. The preparation to be tested are injected by the intraperitoneal route at least one day after the inoculation of the cells (one injection only). The results are expressed in increased life span per cent (ILS %) according to KESSEL et al. Cancer Res. 1971, 31, 1883-1887) or in percentage of the number of cells killed by the product (the survival of the animals is proportional to the number of cells injected).
The following tests were made in groups of 10 mice, unless stipulated to the contrary.
Test 1: Study of the antitumoral properties of the compounds of the invention on L 1210 leukemia
The lower animal antitumoral properties of the compounds according to the invention were determined by their curative action on test inoculated L 1210 leukemia.
This leukemia was maintained on CBD 1 (C 57 B 16×DBA/2) F1 mice. The compounds to be tested were injected by the IP route one or more days after the inoculation of the cells (single injection). The results obtained, shown in table I hereinafter, are expressed in percentage of increase of life span (ILS %) and in percentage of the number of cells killed by the compound to be tested, the survival of the animals being proportional to the number of cells injected.
The percentage of the like span ILS % (Cancer. Res. 1971, 31, 1883-1887) is the following ratio: [formula] S^t =survival of the treated animals S^c =survival of the control animals

[7] = Table V, 10^4 cells, doses mg/mouse: example 7 0.2, Thiotepa 0.1, Mitomycine 0.016, BCNU 0.1, Methotrexate 0.250
[8] = Table V, 10^4 cells, mg/mouse: example 7 0.2, Thiotepa 0.1, Mitomycine 0.016, BCNU 0.1, Methotrexate 0.250, Endoxan 4
[9] = Table VI, 10^5 cells, mg/mouse: Thiotepa 0.1, Mitomycine C 0.016, BCNU 0.1, Methotrexate 0.250, example 7 0.2, Endoxan 4
[10] = Table VII, 10^5 cells, example 7 0.2 mg/mouse, ON COVIN 0.5 μg/mouse

## CN(Cc1cnc2nc(N)nc(N)c2n1)c1ccc(C(=O)N[C@@H](CCC(=O)O)C(=O)O)cc1 [Methotrexate]
L 1210 leukemia [1]; [7]
  ILS %: 44.62%
  MTS (mean survival time): 15.9
L 1210 leukemia [1]; [8]
  Range of death: 15 to 17 days
L 1210 leukemia [1]; [9]
  ILS %: 39.35%
  MTS (mean survival time): 12.62
  Range of death: 12-14

## O=NN(CCCl)C(=O)NCCCl [BCNU]
L 1210 leukemia [1]; [7]
  ILS %: 0.9%
  MTS (mean survival time): 11.1
L 1210 leukemia [1]; [8]
  Range of death: 10 to 12 days
L 1210 leukemia [1]; [9]
  ILS %: 0%
  MTS (mean survival time): 8.8
  Range of death: 8-9

## S=P(N1CC1)(N1CC1)N1CC1 [Thiotepa]
L 1210 leukemia [1]; [7]
  ILS %: 0%
  MTS (mean survival time): 11
L 1210 leukemia [1]; [8]
  Range of death: 10 to 11 days
L 1210 leukemia [1]; [9]
  ILS %: 1.54%
  MTS (mean survival time): 9.2
  Range of death: 9-10

## CCN(CC)CCCC(C)Nc1nccc2c(C)c3[nH]c4ccncc4c3cc12 (stereo not drawn) [Example 10, 1-[(α-methyl-σ-diethylamino-butyl)-amino]-5-methyl-dipyrido-[4,3-b][3,4-f] indole]
mice
  time of deaths after drug administration: 4 to 6 days
mice; mouse, in vivo
  minimal quantity resulting in 100% deaths: 50 mg/kg
L1210 leukemia [2]; day +4
  ILS %: 56.25%
  Survivors up to 60 days: 0
L1210 leukemia [2]; day +4, control MST 11.2
  MST: 17.5
  Range of death: 12-20

## Cc1c2cc[nH]c(=O)c2cc2c1[nH]c1ccncc12 [Example 5, 1,2-dihydro-1-oxo 5-methyl-dipyrido-[4,3-b][3,4-f] indole]
[3]
  Activity (ratio of the LD50 of HUM to the LD50 of the product tested): 0.15

## Cc1c2ccnc(NCCN(C)C)c2cc2c1[nH]c1ccncc12 [Example 9, 1-(β-dimethylaminoethyl)amino-5-methyl-dipyrido-[4,3-b][3,4-f] indole]
mice
  time of deaths after drug administration: 4 to 6 days
mice; mouse, in vivo
  toxicity (toxic dose): 25 mg/kg
  minimal quantity resulting in 100% deaths: 25 mg/kg
L1210 leukemia [2]; Table XIII summary
  activity against L1210 leukemia (in words): active against L1210 leukemia
L1210 leukemia [2]; day +1
  ILS %: 65.2%
  Survivors up to 60 days: 0
L1210 leukemia [2]; day +1, control MST 8.8
  MST: 14.6
  Range of death: 11-18

## CC[C@]1(O)C[C@H]2CN(CCc3c([nH]c4ccccc34)[C@@](C(=O)OC)(c3cc4c(cc3OC)N(C=O)[C@H]3[C@@](O)(C(=O)OC)[C@H](OC(C)=O)[C@]5(CC)C=CCN6CC[C@]43[C@@H]65)C2)C1 [ON COVIN]
L 1210 leukemia [1]; [10]
  ILS %: 3.85%
  MTS (mean survival time): 10.8
  Range of death: 10-13

## CO[C@@]12[C@H](COC(N)=O)C3=C(C(=O)C(C)=C(N)C3=O)N1C[C@@H]1N[C@@H]12 [Mitomycine C]
L 1210 leukemia [1]; [7]
  ILS %: 4.95%
  MTS (mean survival time): 11.54
L 1210 leukemia [1]; [8]
  Range of death: 10 to 15 days
L 1210 leukemia [1]; [9]
  ILS %: 0%
  MTS (mean survival time): 9.06
  Range of death: 9-10

## Cc1c2ccnc(NCCCN(C)C)c2cc2c1[nH]c1ccncc12 [Example 8, 1-(γ-dimethylaminopropyl)amino-5-methyl-dipyrido-[4,3-b][3,4-f] indole]
mice
  time of deaths after drug administration: 3 to 5 days
mice; mouse, in vivo
  minimal quantity resulting in 100% deaths: 50 mg/kg
L 1210 leukemia [4]; 10^3 cells, 0.05 mg/mouse
  ILS %: 34.9%
  Number of surviving mice: 1
L 1210 leukemia [4]; 10^3 cells, 0.1 mg/mouse
  ILS %: 50.5%
  MTS: 16.4
  Number of surviving mice: 3
L 1210 leukemia [4]; 10^4 cells, 0.05 mg/mouse
  ILS %: 34.9%
  Number of surviving mice: 1
L 1210 leukemia [4]; 10^4 cells, 0.1 mg/mouse
  ILS %: 25.7%
  MTS: 13.7
  Number of surviving mice: 3
L 1210 leukemia [4]; 10^5 cells, 0.05 mg/mouse
  ILS %: 28.1%
  MTS: 11.6
L 1210 leukemia [4]; 10^5 cells, 0.1 mg/mouse
  ILS %: 52.5%
  MTS: 13.8
L1210 leukemia [5]; 10^4 cells, 2.5 mg/kg
  60 days surv.: 1
  ILS %: 34.9%
  Range of death: 10-19
L1210 leukemia [5]; 10^5 cells, 5 mg/kg
  60 days surv.: 0
  ILS %: 52.5%
  Range of death: 11-16
L1210 leukemia [5]; Table XII summary
  antitumoral activity compared with Ellipticinium acetate (HUM): compete favorably with Ellipticinium acetate (HUM)
Lewis carcinoma (3LL); IP from J+5
  protective action concerning metastasic pulmonary invasion of the lung: give a protective action
Lewis carcinoma (3LL); J+5, 5 mg/kg
  ILS %: 9.8%
Lewis carcinoma (3LL); J+5, 5 mg/kg, controls 25
  MST: 27.44

## O=P1(N(CCCl)CCCl)NCCCO1 (stereo not shown) [Endoxan]
L 1210 leukemia [1]; Table V, 10^4 cells, Endoxan 4 mg/mouse
  mice alive on 30th day (of 10): 3
L 1210 leukemia [1]; [8]
  Range of death: 13 days
L 1210 leukemia [1]; [9]
  ILS %: 105.30%
  MTS (mean survival time): 18.6
  Range of death: 15-21
Leukemic cells; BCNU 2 mg/kg
  ILS %: 16.9%
Leukemic cells; BCNU 2 mg/kg immediately after endoxan
  Range of death: 11-17
Leukemic cells; BCNU 2 mg/kg, control 11.2
  MST: 13.1

## Cc1c2ccnc(Cl)c2cc2c1[nH]c1ccncc12 [Example 6, 1-chloro-5-methyl-dipyrido [4,3-b][3,4-f] indole]
L 1210 leukemia [6]
  toxicity in L 1210 test: toxic
L 1210 leukemia [6]; 10^4 and 10^3 cells
  ILS % (difference with the controls): no difference
[3]
  Activity (ratio of the LD50 of HUM to the LD50 of the product tested): 0.3
